Read-outs that look alike come from different tables or passages of the source.
Test: Solubility of selected FT4 and FT5 compounds in organic solvents (10 mg compound, stepwise 5 mL solvent additions, ultrasonic bath)
Format: physicochemical
Details: thermodynamic from solid
Method: Solubility of Selected FT4 And FT5 Compounds Table 1 provides a solubility comparison of some α-, α′-unsubstituted, β-, β′-alkyl substituted FT4 (and FT5), with some α-, α′-substituted, β-, β′-alkyl substituted FT4 (and FT5) compounds. General Procedure: 10 mg of a FT4 or FT5 compound was mixed with 5.0 mL of a specified solvent and then sealed in a screw-top glass vial. The resulting mixture was kept in an ultrasonic bath for 30 minutes at ambient temperature and then kept quiescent for 30 minutes to check whether a clear solution formed. If the mixture was still not clear after these 60 minutes, an additional 5.0 mL of the same solvent was added to the vial and the 60 minute mixing and standing procedure was repeated up to a total of 20 mL of solvent.

[1] = CH2Cl2, organic solvent or mixture, 10 mg compound in 5 mL CH2Cl2, ambient temperature, read-out: Solubility CH2Cl2
[2] = CH2Cl2, organic solvent or mixture, 10 mg compound in 10 mL CH2Cl2, ambient temperature, read-out: Solubility CH2Cl2
[3] = hexane, organic solvent or mixture, 10 mg compound in 5 mL hexane, ambient temperature, read-out: Solubility hexane
[4] = hexane, organic solvent or mixture, 10 mg compound in 10 mL hexane, ambient temperature, read-out: Solubility hexane
[5] = hexane, organic solvent or mixture, 10 mg compound in 15 mL hexane, ambient temperature, read-out: Solubility hexane
[6] = hexane, organic solvent or mixture, 10 mg compound in 20 mL hexane, ambient temperature, read-out: Solubility hexane
[7] = toluene, organic solvent or mixture, 10 mg compound in 5 mL toluene, ambient temperature, read-out: Solubility toluene
[8] = toluene, organic solvent or mixture, 10 mg compound in 10 mL toluene, ambient temperature, read-out: Solubility toluene
[9] = CH2Cl2, organic solvent or mixture, 10 mg compound in 15 mL CH2Cl2, ambient temperature, read-out: Solubility CH2Cl2
[10] = CH2Cl2, organic solvent or mixture, 10 mg compound in 20 mL CH2Cl2, ambient temperature, read-out: Solubility CH2Cl2
[11] = toluene, organic solvent or mixture, 10 mg compound in 15 mL toluene, ambient temperature, read-out: Solubility toluene
[12] = toluene, organic solvent or mixture, 10 mg compound in 20 mL toluene, ambient temperature, read-out: Solubility toluene

Structure (SMILES)	solubility at 60 min [1]	solubility at 60 min [2]	solubility at 60 min [3]	solubility at 60 min [4]	solubility at 60 min [5]	solubility at 60 min [6]	solubility at 60 min [7]	solubility at 60 min [8]	solubility at 60 min [9]	solubility at 60 min [10]	solubility at 60 min [11]	solubility at 60 min [12]
CCCCCCCCCCCCCc1csc2c1sc1c3scc(CCCCCCCCCCCCC)c3sc21	< 2000 µg/mL	> 500 µg/mL	< 2000 µg/mL	< 2000 µg/mL	< 2000 µg/mL	< 2000 µg/mL	< 2000 µg/mL	> 500 µg/mL				
CCCCCCCCCCCCCc1c(-c2cccs2)sc2c1sc1c3sc(-c4cccs4)c(CCCCCCCCCCCCC)c3sc21	> 500 µg/mL		< 2000 µg/mL	< 2000 µg/mL	< 2000 µg/mL	< 2000 µg/mL	> 500 µg/mL					
CCCCCCCCCCCCCc1c(-c2ccccc2)sc2c1sc1c3sc(-c4ccccc4)c(CCCCCCCCCCCCC)c3sc21	< 2000 µg/mL	> 500 µg/mL	< 2000 µg/mL	< 2000 µg/mL	< 2000 µg/mL	> 500 µg/mL	> 500 µg/mL					
CCCCCCCCCCCCCCCCCc1csc2c1sc1c3scc(CCCCCCCCCCCCCCCCC)c3sc21	< 2000 µg/mL	< 2000 µg/mL	< 2000 µg/mL	< 2000 µg/mL	< 2000 µg/mL	< 2000 µg/mL	< 2000 µg/mL	< 2000 µg/mL	< 2000 µg/mL	< 2000 µg/mL	< 2000 µg/mL	< 2000 µg/mL
CCCCCCCCCCCCCCCCCc1c(-c2cccs2)sc2c1sc1c3sc(-c4cccs4)c(CCCCCCCCCCCCCCCCC)c3sc21	< 2000 µg/mL	< 2000 µg/mL	< 2000 µg/mL	< 2000 µg/mL	< 2000 µg/mL	< 2000 µg/mL	< 2000 µg/mL	< 2000 µg/mL	< 2000 µg/mL	> 500 µg/mL	> 500 µg/mL	> 500 µg/mL
CCCCCCCCCCCCCCCCCc1c(-c2ccccc2)sc2c1sc1c3sc(-c4ccccc4)c(CCCCCCCCCCCCCCCCC)c3sc21	< 2000 µg/mL	< 2000 µg/mL	< 2000 µg/mL	< 2000 µg/mL	< 2000 µg/mL	< 2000 µg/mL	> 500 µg/mL	> 500 µg/mL	> 500 µg/mL			
CCCCCCCCCCCCCc1csc2c1sc1c2sc2c3scc(CCCCCCCCCCCCC)c3sc21	< 2000 µg/mL	> 500 µg/mL	< 2000 µg/mL	> 500 µg/mL			> 500 µg/mL					
CCCCCCCCCCCCCc1c(-c2cccs2)sc2c1sc1c2sc2c3sc(-c4cccs4)c(CCCCCCCCCCCCC)c3sc21	> 500 µg/mL		< 2000 µg/mL	< 2000 µg/mL	< 2000 µg/mL	< 2000 µg/mL	> 500 µg/mL					
CCCCCCCCCCCCCc1c(-c2ccccc2)sc2c1sc1c2sc2c3sc(-c4ccccc4)c(CCCCCCCCCCCCC)c3sc21	> 500 µg/mL		> 500 µg/mL				> 500 µg/mL					
